# Source: patent EP1611112B1, “ISOXAZOLE COMPOUNDS AS INHIBITORS OF HEAT SHOCK PROTEINS” (Vernalis (Cambridge) Limited, priority 2003, dated 2004)
# Target: T1, human full-length HSP90 (Homo sapiens, UniProt P08238)
# T1 construct: E. coli expressed human full-length HSP90 protein; made in house; host or cells: E. coli
# Assay: Fluorescence Polarisation Assay (displacement of fluorescein-labelled probe RBT0045864-FAM)
# Format: binding
# Details: Fluorescence Polarisation Assay, activity range
# Description: A Fluorescence Polarization_assay was also employed for the evaluation of some of the compounds of the Examples:
# Fluorescence polarization {also known as fluorescence anisotropy} measures the rotation of a fluorescing species in solution, where the larger molecule the more polarized the fluorescence emission.
# When the fluorophore is excited with polarized light, the emitted light is also polarized. The molecular size is proportional to the polarization of the fluorescence emission.
# Test compound is added to the assay plate, left to equilibrate and the anisotropy measured again. Any change in anisotropy is due to competitive binding of compound to HSP90, thereby releasing probe.
# Stored at room temperature. • 3) BSA (bovine serum albumen) 10 mg/ml (New England Biolabs # B9001S) • 4) 20 mM probe in 100 % DMSO stock concentration. Stored in the dark at RT. Working concentration is 200 nM diluted in AR water and stored at 4 °C.
# 1) Add 100µl 1x buffer to wells 11A and 12A (=FP BLNK) 2) Prepare assay mix - all reagents are kept on ice with a lid on the bucket as the probe is light-sensitive.
# This gives 2.5 mM {50x} stock cpd - assuming cpds 20 mM. • 4) Repeat for wells A2 to A10. Control in columns 11 and 12. • 5) Transfer 5 µl from row A to row B- not column 12. Mix well. • 6) Transfer 5 µl from row B to row C. […] Add 2 µl of 100mM standard cpd to wells B12 - H12 {is positive control } • 13)The Z' factor is calculated from zero controls and positive wells.
# T1 sequence (P08238 whole entry): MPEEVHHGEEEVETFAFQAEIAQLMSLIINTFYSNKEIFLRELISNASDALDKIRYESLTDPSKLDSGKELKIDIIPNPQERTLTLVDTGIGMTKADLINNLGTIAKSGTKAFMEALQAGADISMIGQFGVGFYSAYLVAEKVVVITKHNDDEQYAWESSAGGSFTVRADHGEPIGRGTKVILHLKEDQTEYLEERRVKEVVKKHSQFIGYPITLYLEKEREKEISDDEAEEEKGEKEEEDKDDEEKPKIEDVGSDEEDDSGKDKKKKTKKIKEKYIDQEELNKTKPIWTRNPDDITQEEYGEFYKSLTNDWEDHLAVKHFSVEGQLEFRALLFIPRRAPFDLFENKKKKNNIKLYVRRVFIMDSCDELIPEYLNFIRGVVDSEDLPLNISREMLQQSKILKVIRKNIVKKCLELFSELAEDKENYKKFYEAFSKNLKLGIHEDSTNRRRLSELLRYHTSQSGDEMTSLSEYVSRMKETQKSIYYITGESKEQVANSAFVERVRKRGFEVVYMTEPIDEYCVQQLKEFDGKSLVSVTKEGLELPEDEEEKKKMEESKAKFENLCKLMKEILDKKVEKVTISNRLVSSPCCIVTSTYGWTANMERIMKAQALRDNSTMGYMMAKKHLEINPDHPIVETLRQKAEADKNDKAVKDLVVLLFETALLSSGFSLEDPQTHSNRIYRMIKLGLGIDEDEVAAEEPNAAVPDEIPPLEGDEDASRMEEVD
row,SMILES,IC50
1,"CCNC(=O)c1noc(-c2cc(Cl)c(O)cc2O)c1-c1cccc(N2CCN(C)CC2)c1 [Example 31, 5-(5-Chloro-2,4-dihydroxy-phenyl)-4-[3-(4-methyl-piperazin-1-yl)-phenyl]-isoxazole-3-carboxylic acid ethylamide]",< 10 µM
2,CCNC(=O)c1noc(-c2cc(Cl)c(O)cc2O)c1-c1ccc(N2CCNCC2)cc1 [Example 26],< 10 µM
3,CCNC(=O)c1noc(-c2cc(Cl)c(O)cc2O)c1-c1cccc(CN2CCOCC2)c1 [Example 45],< 10 µM
4,CCNC(=O)c1noc(-c2cc(-c3ccc(F)cc3)c(O)cc2O)c1-c1ccc(CN2CCCCC2)cc1 [Example 72],< 10 µM
5,CCNC(=O)c1noc(-c2cc(Cl)c(O)cc2O)c1-c1ccc(CN2CCN(C)CC2)cc1 [Example 47],< 10 µM
6,CCNC(=O)c1noc(-c2cc(CCc3ccc(F)cc3)c(O)cc2O)c1-c1ccc(CN2CCCCC2)cc1 [Example 69],< 10 µM
7,CCNC(=O)c1noc(-c2cc(Cl)c(O)cc2O)c1-c1ccc(N2CCN(C)CC2)cc1 [Example 36],< 10 µM
8,CCNC(=O)c1noc(-c2cc(Cl)c(O)cc2O)c1-c1ccc(C(C)N2CCOCC2)cc1 (stereo not drawn) [Example 42],< 10 µM
9,CCNCc1noc(-c2cc(Cl)c(O)cc2O)c1-c1ccc(OC)cc1 [Example 40],< 10 µM
10,CCNC(=O)c1noc(-c2cc(CC)c(O)cc2O)c1-c1ccc(CN2CCN(C)CC2)cc1 [Example 57],< 10 µM
11,CCNC(=O)c1noc(-c2cc(Cl)c(O)cc2O)c1-c1ccc(F)c(CN2CCN(C(C)=O)CC2)c1 [Example 63],< 10 µM
12,CCNC(=O)c1noc(-c2cc(-c3ccccc3)c(O)cc2O)c1-c1ccc(F)cc1 [Example 67],< 10 µM
13,CCNC(=O)c1noc(-c2cc(Cl)c(O)cc2O)c1-c1ccc(CN2CCS(=O)(=O)CC2)cc1 [Example 38],< 10 µM
14,CCNC(=O)c1noc(-c2cc(Cl)c(O)cc2O)c1-c1cccc(CN2CCN(C)CC2)c1 [Example 48],< 10 µM
15,CCNC(=O)c1noc(-c2cc(Cl)c(O)cc2O)c1Br [Example 27a],< 10 µM
16,CCNC(=O)c1noc(-c2cc(Cl)c(O)cc2O)c1-c1ccc(CN2CCC(O)CC2)cc1 [Example 53],< 10 µM
17,CCNC(=O)c1noc(-c2cc(Cl)c(O)cc2O)c1-c1cccnc1 [Example 34],< 10 µM

row,SMILES,IC50
1,CCNC(=O)c1noc(-c2cc(Cl)c(O)cc2O)c1-c1cccc(CN2CCN(C(C)=O)CC2)c1 [Example 62],< 10 µM
2,CCNC(=O)c1noc(-c2cc(Cl)c(O)cc2O)c1-c1ccc(CNCc2cccnc2)cc1 [Example 58],< 10 µM
3,CCNC(=O)c1noc(-c2cc(Cl)c(O)cc2O)c1-c1cccc(C(C)N2CCOCC2)c1 (stereo not drawn) [Example 44],< 10 µM
4,CCNC(=O)c1noc(-c2cc(CC)c(O)cc2O)c1-c1ccc(CN2CCCCC2)cc1 [Example 56],< 10 µM
5,CCNC(=O)c1noc(-c2cc(Cl)c(O)cc2O)c1-c1ccc(F)cc1 [Example 27],< 10 µM
6,CC(=O)Nc1cccc(-c2c(C)noc2-c2cc(Cl)c(O)cc2O)c1 [Example 30],< 10 µM
7,CNC(=O)c1noc(-c2cc(Cl)c(O)cc2O)c1-c1ccc(CN2CCCCC2)cc1 [Example 41c],< 10 µM
8,CCNC(=O)c1noc(-c2cc(Cl)c(O)cc2O)c1-c1ccc(CN(CC)CC)cc1 [Example 49],< 10 µM
9,CCNC(=O)c1noc(-c2cc(Cl)c(O)cc2O)c1-c1ccc(CNCCS(C)(=O)=O)cc1 [Example 37],< 10 µM
10,CCNC(=O)c1noc(-c2cc(Cl)c(O)cc2O)c1-c1ccc(CN2CCC(CCO)CC2)cc1 [Example 51],< 10 µM
11,CCNC(=O)c1noc(-c2cc(Cl)c(O)cc2O)c1-c1ccc2ccccc2c1 [Example 32],< 10 µM
12,CCNC(=O)c1noc(-c2cc(CC)c(O)cc2O)c1-c1ccc(CN2CCOCC2)cc1 [Example 55],< 10 µM
13,CCNC(=O)c1noc(-c2cc(-c3ccccc3)c(O)cc2O)c1-c1ccc(CN2CCOCC2)cc1 [Example 74],< 10 µM
14,"CCNC(=O)c1noc(-c2cc(Cl)c(O)cc2O)c1-c1ccc(CN2CCOCC2)cc1 [Example 41, 5-(5-Chloro-2,4-dihydroxy-phenyl)-4-(4-morpholin-4-ylmethyl-phenyl)-isoxazole-3-carboxylic acid ethylamide]",< 10 µM
15,CCNC(=O)c1noc(-c2cc(Cl)c(O)cc2O)c1-c1cccc2ccccc12 [Example 35],< 10 µM
16,"Cc1noc(-c2cc(Cl)c(O)cc2O)c1-c1cccc(CN2CCOCC2)c1 [Example 28, 4-Chloro-6-[3-methyl-4-(3-morpholin-4-ylmethyl-phenyl)-isoxazol-5-yl]-benzene-1,3-diol]",< 10 µM

# Next, values leading:
row,IC50,SMILES
1,< 10 µM,CCNC(=O)c1noc(-c2cc(CC)c(O)cc2O)c1-c1ccc(CN(CC)CC)cc1 [Example 41b]
2,< 10 µM,CCNC(=O)c1noc(-c2cc(Cl)c(O)cc2O)c1-c1ccc(CN2CCOCC2)cc1C [Example 41j]
3,< 10 µM,CC(C)NC(=O)c1noc(-c2cc(Cl)c(O)cc2O)c1-c1ccc(CN2CCCCC2)cc1 [Example 41p]
4,< 10 µM,CCNC(=O)c1noc(-c2cc(Cl)c(O)cc2O)c1-c1ccc(CN2CCCCC2)c2ccccc12 [Example 41r]
5,< 10 µM,CCNC(=O)c1noc(-c2cc(Cl)c(O)cc2O)c1-c1ccc(CNCc2ccoc2)cc1 [Example 41a]
6,< 10 µM,NC(=O)c1noc(-c2cc(Cl)c(O)cc2O)c1-c1ccc(CN2CCCCC2)cc1 [Example 41h]
7,< 10 µM,CCNC(=O)c1noc(-c2cc(Cl)c(O)cc2O)c1-c1ccc(F)cc1F [Example 41e]
8,< 10 µM,CCNC(=O)c1noc(-c2cc(Cl)c(O)cc2O)c1-c1ccc(CN2CCCCC2)cc1C [Example 41i]
9,< 10 µM,CCNC(=O)c1noc(-c2cc(Cl)c(O)cc2O)c1-c1ccccc1CN1CCOCC1 [Example 41m]
10,< 10 µM,CCNC(=O)c1noc(-c2cc(Cl)c(O)cc2O)c1-c1ccc(CO)cc1 [Example 41n]

# Same assay, conditions: Fluorescence Polarisation Assay, key in footnote of the table
row,IC50,SMILES
1,< 10 µM,COc1ccc(-c2c(C)noc2-c2cc(C#N)c(O)cc2O)cc1 [Example 12b]

# Same assay, conditions: table names no assay; parent examples tested in fluorescence polarization assay
row,SMILES,IC50
1,CCNC(=O)c1noc(-c2cc(C(C)(C)C)c(O)cc2O)c1-c1ccc(CN2CCOCC2)cc1 [Example 77a],< 10 µM
2,CCNC(=O)c1noc(-c2cc(CCc3cccc(F)c3)c(O)cc2O)c1-c1ccc(CN2CCCCC2)cc1 [Example 75e],< 10 µM
3,CCNC(=O)c1noc(-c2cc(-c3ccccc3C)c(O)cc2O)c1-c1ccc(CN2CCCCC2)cc1 [Example 75m],< 10 µM
4,CCNC(=O)c1noc(-c2cc(-c3ccc(F)cc3)c(O)cc2O)c1-c1ccc(CN(CC)CC)cc1 [Example 75r],< 10 µM
5,CCNC(=O)c1noc(-c2cc(CCc3cccc(C)c3)c(O)cc2O)c1-c1ccc(CN2CCCCC2)cc1 [Example 75a],< 10 µM
6,CCNC(=O)c1noc(-c2cc(-c3ccccc3F)c(O)cc2O)c1-c1ccc(CN2CCCCC2)cc1 [Example 75d],< 10 µM

# Continued, values first:
row,IC50,SMILES
1,< 10 µM,CC(C)NC(=O)c1noc(-c2cc(C(C)C)c(O)cc2O)c1-c1ccc(CNC(C)(C)C)cc1 [Example 78z]
2,< 10 µM,CCNC(=O)c1noc(-c2cc(-c3ccc(F)cc3)c(O)cc2O)c1-c1ccc(CN2CCN(C)CC2)cc1 [Example 75q]
3,< 10 µM,CCNC(=O)c1noc(-c2cc(C(C)C)c(O)cc2O)c1-c1ccc(CN2CCNCC2)cc1 [Example 78p]
4,< 10 µM,CCNC(=O)c1noc(-c2cc(C(C)(C)C)c(O)cc2O)c1-c1ccc(CN2CCCCC2)cc1 [Example 77c]
5,< 10 µM,CCNC(=O)c1noc(-c2cc(-c3ccccc3F)c(O)cc2O)c1-c1ccc(CN2CCN(C)CC2)cc1 [Example 75g]
6,< 10 µM,CCNC(=O)c1noc(-c2cc(C(C)C)c(O)cc2O)c1-c1ccc(CNCCN(CC)CC)cc1 [Example 78n]
7,< 10 µM,CCNC(=O)c1noc(-c2cc(C(C)(C)C)c(O)cc2O)c1-c1ccc(CN2CCN(C)CC2)cc1 [Example 77d]
8,< 10 µM,CC(C)NC(=O)c1noc(-c2cc(C(C)C)c(O)cc2O)c1-c1ccc(CN2CCN(C)CC2)cc1 [Example 78t]
9,< 10 µM,CCNC(=O)c1noc(-c2cc(C(C)C)c(O)cc2O)c1-c1ccc(CNCC(F)(F)F)cc1 [Example 78ab]
10,< 10 µM,CCNC(=O)c1noc(-c2cc(-c3c(C)noc3C)c(O)cc2O)c1-c1ccc(CN2CCCCC2)cc1 [Example 75v]
11,< 10 µM,CCNC(=O)c1noc(-c2cc(C(C)C)c(O)cc2O)c1-c1ccc(CNCC(=O)NC(C)C)cc1 [Example 78ad]
12,< 10 µM,CCNC(=O)c1noc(-c2cc(-c3ccccc3C)c(O)cc2O)c1-c1ccc(CN2CCN(C)CC2)cc1 [Example 75s]
13,< 10 µM,CC(C)NC(=O)c1noc(-c2cc(C(C)C)c(O)cc2O)c1-c1ccc(CNC2CCCC2)cc1 [Example 78y]
14,< 10 µM,CCNC(=O)c1noc(-c2cc(C(C)C)c(O)cc2O)c1-c1ccc(CNC2CCNCC2)cc1 [Example 78q]
15,< 10 µM,CCNC(=O)c1noc(-c2cc(C(C)C)c(O)cc2O)c1-c1ccc(CN2CCC(F)(F)CC2)cc1 [Example 78ac]
16,< 10 µM,CC(C)NC(=O)c1noc(-c2cc(C(C)C)c(O)cc2O)c1-c1ccc(CN2CCC(F)(F)CC2)cc1 [Example 78aa]
